Assay [1] addresses 5-hydroxytryptamine receptor 2A (Homo sapiens, UniProt P28223). The assay is described as follows: Binding affinity towards human cloned 5-hydroxytryptamine 2A receptor of HEK293 cells by displacement of [3H]ketanserin. Format: cell-based. In general terms: Loss of bound radioactivity is the signal in a displacement assay; it reports binding, not function.
Assay [2] deals with T1, 5-hydroxytryptamine receptor 2C (Homo sapiens, UniProt P28335).
T1 sequence (P28335 whole entry): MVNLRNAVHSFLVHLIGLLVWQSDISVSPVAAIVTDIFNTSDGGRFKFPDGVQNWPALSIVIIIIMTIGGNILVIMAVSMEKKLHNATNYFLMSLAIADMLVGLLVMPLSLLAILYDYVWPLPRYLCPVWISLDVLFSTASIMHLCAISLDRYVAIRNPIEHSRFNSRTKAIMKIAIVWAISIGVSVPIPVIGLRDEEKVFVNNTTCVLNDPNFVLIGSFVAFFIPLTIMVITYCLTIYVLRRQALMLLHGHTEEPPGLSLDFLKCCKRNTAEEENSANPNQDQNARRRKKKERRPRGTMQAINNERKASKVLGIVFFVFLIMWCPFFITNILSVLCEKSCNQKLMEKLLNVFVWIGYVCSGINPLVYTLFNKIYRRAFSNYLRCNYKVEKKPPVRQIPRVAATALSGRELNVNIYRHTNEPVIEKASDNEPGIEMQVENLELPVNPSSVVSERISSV
The assay is described as follows: Binding affinity towards human cloned 5-hydroxytryptamine 2C receptor of HEK293 cells by displacement of [3H]mesulergine. Type of assay: cell-based.

In assay [3] the target is 5-hydroxytryptamine receptor 2B (Homo sapiens, UniProt P41595). The assay is described as follows: Binding affinity towards human cloned 5-HT2B receptor of HEK293 cells by displacement of [3H]5-HT. Format: cell-based.
Sequence of 5-hydroxytryptamine receptor 2B (P41595 whole entry): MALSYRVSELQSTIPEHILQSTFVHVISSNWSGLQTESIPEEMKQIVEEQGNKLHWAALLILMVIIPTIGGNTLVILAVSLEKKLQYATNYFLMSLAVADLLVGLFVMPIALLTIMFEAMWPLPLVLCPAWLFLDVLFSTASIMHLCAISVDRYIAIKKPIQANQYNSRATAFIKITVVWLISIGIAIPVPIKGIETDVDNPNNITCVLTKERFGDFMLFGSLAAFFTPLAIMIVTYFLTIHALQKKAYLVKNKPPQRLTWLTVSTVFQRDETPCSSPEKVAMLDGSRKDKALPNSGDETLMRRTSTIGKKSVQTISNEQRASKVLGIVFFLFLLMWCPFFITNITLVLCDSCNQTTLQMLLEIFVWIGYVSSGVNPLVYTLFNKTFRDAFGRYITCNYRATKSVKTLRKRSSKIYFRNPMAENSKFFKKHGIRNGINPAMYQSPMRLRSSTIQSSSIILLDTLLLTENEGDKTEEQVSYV
Assay [4] concerns Rattus norvegicus. The assay is described as follows: Percent reversal of mCPP induced hypolocomotion after peroral administration at 5 mg/kg in rat. Conditions: route oral. Format: functional.
Assay [5] deals with Serotonin 2 receptors; 5-HT2a & 5-HT2c (Homo sapiens) (UniProt P28223+P28335). The assay is described as follows: Selectivity expressed as ratio of serotonin 5-HT2C receptor over serotonin 5-HT2A receptor. Format: protein assay.
Sequence of Serotonin 2 receptors; 5-HT2a & 5-HT2c (Homo sapiens) (P28223 whole entry, looked up, one chain of several): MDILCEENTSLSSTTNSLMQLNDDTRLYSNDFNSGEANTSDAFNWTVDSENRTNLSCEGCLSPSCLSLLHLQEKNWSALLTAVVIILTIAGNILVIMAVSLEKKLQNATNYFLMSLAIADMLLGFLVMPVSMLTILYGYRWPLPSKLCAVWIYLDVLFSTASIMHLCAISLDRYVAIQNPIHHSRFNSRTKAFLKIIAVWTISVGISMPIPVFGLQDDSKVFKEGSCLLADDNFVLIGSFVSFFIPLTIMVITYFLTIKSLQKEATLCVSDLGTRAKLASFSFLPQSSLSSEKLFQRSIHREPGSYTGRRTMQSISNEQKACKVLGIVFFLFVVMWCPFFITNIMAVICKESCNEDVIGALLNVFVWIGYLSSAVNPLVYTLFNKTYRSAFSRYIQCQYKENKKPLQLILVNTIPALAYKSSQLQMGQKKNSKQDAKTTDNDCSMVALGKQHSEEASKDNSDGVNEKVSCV
Assay [6] concerns the target Serotonin receptor (2b and 2c) (Homo sapiens) (UniProt P41595+P28335). The assay is described as follows: Selectivity expressed as ratio of serotonin 5-HT2C receptor over serotonin 5-HT2B receptor. Type of assay: protein assay.
In assay [7] the test system is Rattus norvegicus. The assay is described as follows: Dose required to reverse mCPP induced hypolocomotion by 50% at 7 mg/kg, ip administration 30 min pretest. Format: functional. The settings on record: 0.5 h, route intraperitoneal, read-out: ID50 (the source's name).

Sequence of 5-hydroxytryptamine receptor 2A (P28223 whole entry): as the sequence (P28223 whole entry, looked up, one chain of several) above

Usually Ki stands for the equilibrium dissociation constant of an inhibitor or competing ligand from its target. The low end stands for a stronger hold on the target, the high end for a looser hold on the target. Take `Cc1cc2c(cc1Cl)CCN2C(=O)Nc1ccc(Oc2cccnc2C)nc1`: the Ki in assay [1] is 0.158 µM; in assay [2], 0.00126 µM; in assay [3] it was 0.126 µM. Moreover, the Reversal in the assay on Rattus norvegicus [4] is recorded as 7.3%. Also, the figures for the Selectivity in assay [5] and in assay [6] were 130 and 100, respectively.
Regarding `Cc1cc2c(cc1Br)N(C(=O)Nc1ccc(Oc3cccnc3C)nc1)CC2`, the Ki in assay [1] is 0.158 µM; in assay [2], 0.000794 µM; in assay [3] it was 0.0631 µM. Moreover, the Reversal in the assay on Rattus norvegicus [4] amounted to 49%. The Selectivity in assay [5] was 200; in assay [6] it was 80.
As for `Cc1ncccc1Oc1ccc(NC(=O)N2CCc3c2cc(C(F)(F)F)c2c3CCO2)cn1`, the Ki is 0.501 µM in assay [1], 0.00126 µM in assay [2] and 0.0631 µM in assay [3]. The ED50 in the assay with Rattus norvegicus [7] stood at 9 mg/kg. Also, the Selectivity in assay [5] came to 400; in assay [6], 50.
For the compound `Cc1ncccc1Oc1ccc(NC(=O)N2CCc3ccc(C(F)(F)F)cc32)cn1`, the values for the Ki in assay [1], in assay [2] and in assay [3] were 0.158 µM, 0.00501 µM and 0.398 µM, respectively. The Selectivity in assay [5] worked out at 30; in assay [6], 80.
For `Cc1ncccc1Oc1ccc(NC(=O)N2CCc3c2ccc(Cl)c3Cl)cn1`, the Ki in assay [1] was 3.16 µM; in assay [2], 0.00316 µM; in assay [3], 0.501 µM. Moreover, the Reversal in the assay on Rattus norvegicus [4] is 4%. The results for the Selectivity in assay [5] and in assay [6] were 1000 and 160, respectively.
Turning to `Cc1ncccc1Oc1ccc(NC(=O)N2CCc3cc(I)ccc32)cn1`, the Ki was 1.58 µM in assay [1], 0.00316 µM in assay [2] and 0.316 µM in assay [3]. Besides, the Reversal with Rattus norvegicus [4] is given as 14%. Also, the Selectivity in assay [5] worked out at 500; in assay [6], 100.
Regarding `Cc1ncccc1Oc1ccc(NC(=O)N2CCc3cc(F)ccc32)cn1`, the inhibitory constant (Ki) in assay [1] was more than 10 µM; in assay [2], 0.0398 µM; in assay [3], 5.01 µM. Further, the Reversal in the assay on Rattus norvegicus [4] turned out to be 4%. For the same compound, the Selectivity in assay [5] was more than 250; in assay [6] it was 130.
As for `CCCc1ncccc1Oc1ccc(NC(=O)N2CCc3cc(C)c(Cl)cc32)cn1`, the results for the Ki in assay [1], in assay [2] and in assay [3] were 0.158 µM, 0.00158 µM and 0.1 µM, respectively. In the assay with Rattus norvegicus [4], the Reversal is 18%. The Selectivity in assay [5] amounted to 100; in assay [6] it was 60.
In the case of `Cc1cc2c(cc1Cl)N(C(=O)Nc1ccc(Oc3cccnc3Cl)nc1)CC2`, the Ki in assay [1] is 0.1 µM; in assay [2] it was 0.00126 µM; in assay [3], 0.0501 µM. For the same compound, in the assay on Rattus norvegicus [7], the ED50 turned out to be 4.5 mg/kg. The results for the Selectivity in assay [5] and in assay [6] were 80 and 40, respectively.
In the case of `Cc1ncccc1Oc1ccc(NC(=O)N2CCc3cc(F)c(Cl)cc32)cn1`, the Ki in assay [1] was 0.501 µM; in assay [2] it was 0.00631 µM; in assay [3], 0.631 µM. Further, the Reversal in the assay with Rattus norvegicus [4] was 16%. Further, the Selectivity in assay [5] was 80; in assay [6], 100.
Consider `Cc1ncccc1Oc1ccc(NC(=O)N2CCc3c(Cl)cccc32)cn1`, for which the Ki was more than 10 µM in assay [1], 0.0158 µM in assay [2] and 2.51 µM in assay [3]. In the assay with Rattus norvegicus [4], the Reversal stood at 6%. The Selectivity is more than 630 in assay [5] and 160 in assay [6].
Turning to `Cc1cc2c(cc1C(F)(F)F)N(C(=O)Nc1ccc(Oc3cncnc3C)nc1)CC2`, the Ki in assay [1] is 0.0794 µM; in assay [2] it was 0.002 µM; in assay [3] it was 0.0126 µM. Besides, the Selectivity in assay [5] came to 40; in assay [6], 6.
Turning to `Cc1ncccc1Oc1ccc(NC(=O)N2CCc3cc(Cl)c(Cl)cc32)cn1`, the Ki in assay [1] is 0.251 µM; in assay [2] it was 0.002 µM; in assay [3], 0.316 µM. Further, in the assay with Rattus norvegicus [4], the Reversal was 32%. The Selectivity in assay [5] was found to be 130; in assay [6], 160.
On to `Cc1ccc2c(c1Br)CCN2C(=O)Nc1ccc(Oc2cccnc2C)nc1`, for which the results for the Ki in assay [1], in assay [2] and in assay [3] were more than 1 µM, 0.00158 µM and 0.251 µM, respectively. Besides, the Reversal in the assay with Rattus norvegicus [4] was found to be 0%. Besides, the Selectivity in assay [5] is more than 630; in assay [6] it was 160.
Consider `Cc1ncccc1Oc1ccc(NC(=O)N2CCc3ccc(Cl)cc32)cn1`, for which the Ki was 0.316 µM in assay [1], 0.00398 µM in assay [2] and 0.794 µM in assay [3]. Further, in the assay on Rattus norvegicus [4], the Reversal was determined as 3%. The Selectivity in assay [5] amounted to 80; in assay [6], 200.
For `Cc1ncccc1Oc1ccc(NC(=O)N2CCc3cc(Cl)ccc32)cn1`, the Ki in assay [1] was more than 10 µM; in assay [2], 0.00631 µM; in assay [3], 2 µM. The Reversal in the assay on Rattus norvegicus [4] was 40%. Further, the results for the Selectivity in assay [5] and in assay [6] were more than 1600 and 320, respectively.
On to `Cc1ncccc1Oc1ccc(NC(=O)N2CCc3c(Br)cccc32)cn1`, for which the Ki was more than 6.31 µM in assay [1], 0.0158 µM in assay [2] and more than 2 µM in assay [3]. Further, in the assay on Rattus norvegicus [4], the Reversal was 3%. Besides, the Selectivity was more than 400 in assay [5] and more than 130 in assay [6].
Regarding `CSc1cc2c(cc1C(F)(F)F)N(C(=O)Nc1ccc(Oc3cccnc3C)nc1)CC2`, the Ki is 0.251 µM in assay [1], 0.000398 µM in assay [2] and 0.0398 µM in assay [3]. Further, the Reversal in the assay with Rattus norvegicus [4] was 31%. Further, the Selectivity in assay [5] is 630; in assay [6] it was 100.
For the compound `Cc1cc2c(cc1C(F)(F)F)N(C(=O)Nc1ccc(Oc3cccnc3C)nc1)CC2` [SB-243213], the ED50 with Rattus norvegicus [7] was determined as 1 mg/kg. For the same compound, the Selectivity in assay [5] is 160; in assay [6], 100.
Take `Cc1ncccc1Oc1ccc(NC(=O)N2CCc3ccccc32)cn1`: the Ki in assay [1] was more than 10 µM; in assay [2] it was 0.1 µM; in assay [3], 2 µM. The Selectivity is more than 100 in assay [5] and 20 in assay [6].
Taken in the same sequence, the figures for `COc1cc2c(cc1C(F)(F)F)N(C(=O)Nc1cnc(Oc3cccnc3C)cc1C)CC2` were 0.631 µM, 0.2 µM, 0.251 µM, 3 and 1.3.
Take `Cc1cc2c(cc1Cl)N(C(=O)Nc1ccc(Oc3cccnc3C)nc1)CC2`: the figures for the Selectivity in assay [5] and in assay [6] were 160 and 100, respectively.
With `Cc1ncccc1Oc1ccc(NC(=O)N2CCc3c2cc(Cl)c(C)c3Cl)cn1`, the Ki in assay [1] is 0.0631 µM; in assay [2] it was 0.001 µM; in assay [3], 0.0398 µM. The Reversal in the assay on Rattus norvegicus [4] is reported as 85%. Further, the Selectivity in assay [5] worked out at 60; in assay [6] it was 40.
For `COc1cc2c(cc1C(F)(F)F)N(C(=O)Nc1ccc(Oc3cccnc3C)nc1)CC2`, the Selectivity is 1300 in assay [5] and 80 in assay [6].
On to `Cc1cc2c(cc1Cl)N(C(=O)Nc1ccc(Oc3cnccc3Cl)nc1)CC2`, for which the Ki in assay [1] was 0.0158 µM; in assay [2], 0.000501 µM; in assay [3], 0.0126 µM. In addition, the Selectivity is 30 in assay [5] and 25 in assay [6].
In the case of `Cc1ncccc1Oc1ccc(NC(=O)N2CCc3cc(Br)ccc32)cn1`, the results for the Ki in assay [1], in assay [2] and in assay [3] were more than 3.98 µM, 0.00316 µM and 0.631 µM, respectively. In addition, the Reversal with Rattus norvegicus [4] stood at 10%. In addition, the Selectivity was more than 1300 in assay [5] and 200 in assay [6].
With `Cc1cc2c(cc1Cl)N(C(=O)Nc1ccc(Oc3cnccc3C)nc1)CC2`, the values for the Ki in assay [1], in assay [2] and in assay [3] were 0.00794 µM, 0.001 µM and 0.0316 µM, respectively. The Selectivity worked out at 8 in assay [5] and 30 in assay [6].
As to `Cc1ncccc1Oc1ccc(NC(=O)N2CCc3c2cccc3C(F)(F)F)cn1`, the Ki in assay [1] is more than 10 µM; in assay [2], 0.2 µM; in assay [3], more than 10 µM. The Selectivity in assay [5] and in assay [6] was more than 50 throughout.
As for `Cc1cc2c(cc1F)N(C(=O)Nc1ccc(Oc3cccnc3C)nc1)CC2`, the Ki is 0.794 µM in assay [1], 0.00158 µM in assay [2] and 0.158 µM in assay [3]. Further, in the assay on Rattus norvegicus [4], the Reversal worked out at 46%. The Selectivity in assay [5] was determined as 500; in assay [6] it was 100.
As to `Cc1cc2c(cc1Cl)N(C(=O)Nc1ccc(Oc3cccnc3C(C)C)nc1)CC2`, the Ki is 0.794 µM in assay [1], 0.126 µM in assay [2] and 0.2 µM in assay [3]. For the same compound, the Selectivity stood at 6 in assay [5] and 2 in assay [6].
In the case of `CCc1cc2c(cc1C(F)(F)F)N(C(=O)Nc1ccc(Oc3cccnc3C)nc1)CC2`, the Ki is 0.501 µM in assay [1], 0.00251 µM in assay [2] and 0.126 µM in assay [3]. For the same compound, the Reversal in the assay with Rattus norvegicus [4] worked out at 12%. For the same compound, the values for the Selectivity in assay [5] and in assay [6] were 200 and 50, respectively.

The values above are taken from ChEMBL document CHEMBL1133064, “1-[2-[(Heteroaryloxy)heteroaryl]carbamoyl]indolines: novel and selective 5-HT2C receptor inverse agonists with potential as antidepressant/anxiolytic agents” (Bioorg Med Chem Lett, 2000).
